Reference: patent publication US20060167110A1 (priority 1995, published 2006)
Values joined by “and” are separate entries in the source; they are usually repeats but may differ in a detail not shown here. Equal entries are not always repeated.

Columns and labels:
dopamine uptake system = target: T1, dopamine uptake system (Rattus norvegicus, UniProt P23977); test: Inhibition of tritiated dopamine uptake in rat neostriatal nerve-terminal (synaptosome) preparation; assay type: biochemical
T1 construct: An in vitro nerve-terminal preparation (symptosome-preparation) was obtained from fresh rat neostriatal brain tissue; from tissue; host or cells: rat neostriatal synaptosomes
T1 sequence (P23977 whole entry): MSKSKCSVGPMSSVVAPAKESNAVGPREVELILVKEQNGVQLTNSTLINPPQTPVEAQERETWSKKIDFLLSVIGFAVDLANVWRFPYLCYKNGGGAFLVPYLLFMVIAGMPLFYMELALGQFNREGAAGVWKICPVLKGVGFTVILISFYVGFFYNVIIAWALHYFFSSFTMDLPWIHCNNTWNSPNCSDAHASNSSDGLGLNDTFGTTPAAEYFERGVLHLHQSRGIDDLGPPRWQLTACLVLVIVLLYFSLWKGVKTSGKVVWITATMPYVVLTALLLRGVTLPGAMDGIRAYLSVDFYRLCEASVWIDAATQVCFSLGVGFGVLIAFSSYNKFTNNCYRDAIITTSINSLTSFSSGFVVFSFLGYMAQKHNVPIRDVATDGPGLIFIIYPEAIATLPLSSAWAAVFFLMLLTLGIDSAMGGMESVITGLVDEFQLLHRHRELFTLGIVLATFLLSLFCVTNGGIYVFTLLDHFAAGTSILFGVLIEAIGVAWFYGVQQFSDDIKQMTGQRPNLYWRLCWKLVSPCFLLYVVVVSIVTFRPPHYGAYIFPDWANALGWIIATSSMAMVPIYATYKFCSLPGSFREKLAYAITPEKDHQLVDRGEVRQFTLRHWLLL
Method: An in vitro nerve terminal preparation (synaptosome preparation) was prepared using fresh rat neostriatal tissue.
Transport by dopamine nerve-terminals was estimated by measuring the uptake of tritiated dopamine.

MAO-B [1] = target: T2, MAO-B (Cavia porcellus, UniProt P58028); test: MAO-B inhibition in guinea pig hippocampal homogenates in vitro; assay type: biochemical
T2 construct: MAO-B (^14C-phenylethylamine) by human platelets and guinea pig hippocampal homogenates; from tissue; host or cells: guinea pig hippocampal homogenates
T2 sequence (P58028 1-520): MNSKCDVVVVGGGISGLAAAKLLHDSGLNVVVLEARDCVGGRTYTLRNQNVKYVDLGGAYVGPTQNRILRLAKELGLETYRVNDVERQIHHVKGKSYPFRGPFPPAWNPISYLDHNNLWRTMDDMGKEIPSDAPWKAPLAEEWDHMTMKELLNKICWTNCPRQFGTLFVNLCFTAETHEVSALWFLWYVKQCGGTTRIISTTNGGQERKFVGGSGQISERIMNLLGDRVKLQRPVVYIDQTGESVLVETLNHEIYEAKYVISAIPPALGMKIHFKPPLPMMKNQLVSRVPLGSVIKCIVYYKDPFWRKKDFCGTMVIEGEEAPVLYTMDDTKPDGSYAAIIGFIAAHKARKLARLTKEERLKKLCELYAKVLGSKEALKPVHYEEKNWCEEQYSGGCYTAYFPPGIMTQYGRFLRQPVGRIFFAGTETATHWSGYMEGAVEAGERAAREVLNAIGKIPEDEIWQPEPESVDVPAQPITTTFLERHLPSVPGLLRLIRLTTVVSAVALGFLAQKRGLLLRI
From the text: (§1) Human platelet MAO is comprised exclusively of the type-B isoform of the enzyme. […] The present study also examined the two enantiomers of DMS for inhibitory activity with respect to the MAO-A and MAO-B in guinea pig hippocampal tissue. Guinea pig brain tissue is an excellent animal model for studying brain dopamine metabolism, the enzyme kinetics of the multiple forms of MAO and the inhibitory properties of novel agents that interact with these enzymes. The multiple forms of MAO in this animal species show similar kinetic properties to those found in human brain tissue. Finally, the test agents were administered to guinea pigs and the extent to which they might act as inhibitors of brain MAO in vivo was assessed.
(§2) In vitro: The test system utilized the in vitro conversion of specific substrates of MAO-A (^14C-serotonin) in guinea pig hippocampal homogenates or MAO-B (^14C-phenylethylamine) by human platelets and guinea pig hippocampal homogenates. […] A percent inhibition was calculated from these values.

MAO-B [2] = target: T2, MAO-B; test: In vivo brain MAO-B inhibition in guinea pig hippocampus after 5 daily s.c. doses; settings: preliminary studies
Method: FIG. 20: In vivo MAO-B Inhibition in Guinea Pig Hippocampus. […] Animals were then sacrificed and the MAO-B activity in the hippocampus portion of the brain was determined. […] The plots were used to estimate the ID50 dosage for each agent.
Each enantiomer of DMS was administered in vivo by subcutaneous injection once a day for five consecutive days, and inhibition of brain MAO-B activity was then determined.

[3] = system: cultured rat mesencephalic cells; test: TH immunochemistry after 100 μM NMDA exposure
Method: Rat mesencephalic cell cultures were exposed to 100 μM NMDA and incubated as described above in connection with FIG. 16.

[4] = system: rat embryonic mesencephalic cells; test: [3H]dopamine uptake, medium change (glutamate receptor dependent) model of cell death
Method: Preparations are then added to 10 ml Ecoscint (National Diagnostics) and counted in a scintillation spectrometer.
(§3) In these experiments, cells were plated and allowed to stabilize for several days.

[5] = system: rat embryonic mesencephalic cells; test: TH positive cell survival, medium change (glutamate receptor dependent) model of cell death
Method: as §3

MAO-A = target: T3, MAO-A (Cavia porcellus, UniProt H0UVA2); test: MAO-A inhibition in guinea pig hippocampal homogenates in vitro; assay type: biochemical; design: specific substrates of MAO-A (^14C-serotonin) in guinea pig hippocampal homogenates; from tissue; host or cells: guinea pig hippocampal homogenates
T3 sequence (H0UVA2 1-461): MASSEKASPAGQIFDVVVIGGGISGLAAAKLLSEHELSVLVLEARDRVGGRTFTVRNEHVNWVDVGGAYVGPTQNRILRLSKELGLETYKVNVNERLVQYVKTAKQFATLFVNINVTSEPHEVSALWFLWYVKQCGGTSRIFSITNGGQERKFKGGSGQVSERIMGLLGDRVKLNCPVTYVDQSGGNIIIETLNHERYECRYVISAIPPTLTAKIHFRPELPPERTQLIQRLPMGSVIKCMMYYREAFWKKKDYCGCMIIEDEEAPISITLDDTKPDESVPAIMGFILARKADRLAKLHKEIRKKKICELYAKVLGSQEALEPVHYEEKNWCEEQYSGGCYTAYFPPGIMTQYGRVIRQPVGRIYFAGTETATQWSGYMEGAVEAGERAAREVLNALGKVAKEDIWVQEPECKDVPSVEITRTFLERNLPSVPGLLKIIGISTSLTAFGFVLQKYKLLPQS
From the text: as §1, §2

C#CCNC(C)Cc1ccccc1 (single isomer, unassigned) [S(+)DMS, S(+)-desmethylselegiline]
times more potent than either selegiline or R(−)DMS in inhibiting dopamine uptake (dopamine uptake system): 4-5 times
IC50 (MAO-B [1]; IC50 Values for the Inhibition of MAO-B, Guinea Pig Hippocampal Cortex): 1200 nM
reduction in potency compared to selegiline, MAO-B, Guinea Pig Hippocampal Cortex (MAO-B [1]; figure in parentheses): 1200 nM (1200)
inhibition at 0.3 µM (MAO-B [1]; read-out: MAO-B % Inhibition 0 ± SEM, Concentration 300 nM): 18.7 ± 2.1%
inhibition at 3 µM (MAO-B [1]; read-out: MAO-B % Inhibition 0 ± SEM, Concentration 3 μM): 77.1 ± 6%
times less potent than selegiline, brain MAO-B in vivo (MAO-B [2]): about 10 times
TH positive cells, % control ([3]; 0.5 μM, Mean): 182.3 % control
TH positive cells, cells/cm^2 ([3]; 0.5 μM, Mean): 171.67 cells/cm^2
TH positive cells, % control ([3]; 0.5 μM, single sample): 135.4 % control and 223.0 % control and 188.5 % control
TH positive cells, cells/cm^2 ([3]; 0.5 μM, single sample): 127.5 cells/cm^2 and 210 cells/cm^2 and 177.5 cells/cm^2
TH positive cells, % control ([3]; 5.0 μM, Mean): 197.8 % control
TH positive cells, cells/cm^2 ([3]; 5.0 μM, Mean): 186.25 cells/cm^2
TH positive cells, % control ([3]; 5.0 μM, single sample): 204.4 % control and 199.1 % control and 183.2 % control
TH positive cells, cells/cm^2 ([3]; 5.0 μM, single sample): 192.5 cells/cm^2 and 187.5 cells/cm^2 and 172.5 cells/cm^2
TH positive cells, % control ([3]; 50 μM, Mean): 276.1 % control
TH positive cells, cells/cm^2 ([3]; 50 μM, Mean): 260 cells/cm^2
TH positive cells, % control ([3]; 50 μM, single sample): 315.9 % control and 215.0 % control and 337.2 % control and 236.3 % control
TH positive cells, cells/cm^2 ([3]; 50 μM, single sample): 297.5 cells/cm^2 and 202.5 cells/cm^2 and 317.5 cells/cm^2 and 222.5 cells/cm^2
Dopamine uptake, % control ([4]; 0.5 μM, Mean): 167.2 % control
Dopamine uptake, counts/min ([4]; 0.5 μM, Mean): 35115.5 counts/min
Dopamine uptake, % control ([4]; 0.5 μM, single sample): 170.6 % control and 152.8 % control and 157.4 % control and 188.2 % control
Dopamine uptake, counts/min ([4]; 0.5 μM, single sample): 35830 counts/min and 32074 counts/min and 33042 counts/min and 39516 counts/min
Dopamine uptake, % control ([4]; 5.0 μM, Mean): 180.5 % control
Dopamine uptake, counts/min ([4]; 5.0 μM, Mean): 37889.75 counts/min
Dopamine uptake, % control ([4]; 5.0 μM, single sample): 171.3 % control and 173.7 % control and 181.7 % control and 195.1 % control
Dopamine uptake, counts/min ([4]; 5.0 μM, single sample): 35976 counts/min and 36476 counts/min and 38143 counts/min and 40964 counts/min
Dopamine uptake, % control ([4]; 50 μM, Mean): 157.3 % control
Dopamine uptake, counts/min ([4]; 50 μM, Mean): 33016.75 counts/min
Dopamine uptake, % control ([4]; 50 μM, single sample): 123.8 % control and 177.7 % control and 146.3 % control and 181.1 % control
Dopamine uptake, counts/min ([4]; 50 μM, single sample): 26002 counts/min and 37320 counts/min and 30725 counts/min and 38020 counts/min
TH positive cells, % control ([5]; 0.5 μM, Mean): 143.5 % control
TH positive cells, cells/cm^2 ([5]; 0.5 μM, Mean): 403.1 cells/cm^2
TH positive cells, % control ([5]; 0.5 μM, single sample): 152.7 % control and 125.2 % control
TH positive cells, cells/cm^2 ([5]; 0.5 μM, single sample): 402.5 cells/cm^2 and 330.0 cells/cm^2 and 477.5 cells/cm^2
TH positive cells, % control ([5]; 5.0 μM, Mean): 130.6 % control
TH positive cells, cells/cm^2 ([5]; 5.0 μM, Mean): 344.4 cells/cm^2
TH positive cells, % control ([5]; 5.0 μM, single sample): 129.9 % control and 135.6 % control and 123.3 % control and 133.7 % control
TH positive cells, cells/cm^2 ([5]; 5.0 μM, single sample): 342.5 cells/cm^2 and 357.5 cells/cm^2 and 325.0 cells/cm^2 and 352.5 cells/cm^2
TH positive cells, % control ([5]; 50 μM, Mean): 109.8 % control
TH positive cells, cells/cm^2 ([5]; 50 μM, Mean): 289.4 cells/cm^2
TH positive cells, % control ([5]; 50 μM, single sample): 116.6 % control and 94.8 % control and 118.5 % control and 109.1 % control
TH positive cells, cells/cm^2 ([5]; 50 μM, single sample): 307.5 cells/cm^2 and 250.0 cells/cm^2 and 312.5 cells/cm^2 and 287.5 cells/cm^2
MAO-A % Reduction 0 ± SEM (MAO-A; Concentration 1 nM): 92.7 ± 2.5%
MAO-A % Reduction 0 ± SEM (MAO-A; Concentration 10 nM): 99.6 ± 0.35%
MAO-A % Reduction 0 ± SEM (MAO-A; Concentration 1 μM): 3.3 + 1.5%
MAO-A % Reduction 0 ± SEM (MAO-A; Concentration 3 μM): 4.3 ± 1.0%
MAO-A % Reduction 0 ± SEM (MAO-A; Concentration 10 μM): 10.5 ± 1.47%
MAO-A % Reduction 0 ± SEM (MAO-A; Concentration 100 μM): 48.4 ± 1.8%
reduction in potency compared to selegiline, MAO-A (MAO-A; figure in parentheses, times less potent): 40

C[C@]12N[C@H](Cc3ccccc31)c1ccccc12 [MK-801, reference compound]
neuron protection by measurement of dopamine uptake (FIG. 15) ([4]; 10 μM): protection was also obtained

C#CCN(C)CCCOc1ccc(Cl)cc1Cl [clorgyline, reference compound]
neuron protection by measurement of dopamine uptake (FIG. 15) ([4]; 50 μM): protected
